Data: patent US9255100B2 (BAYER INTELLECTUAL PROPERTY GMBH, priority 2010, dated 2016)

Molecular target: T1, N-terminally GST-tagged human full length recombinant Mps-1 kinase (Homo sapiens, UniProt P33981)
T1 construct: N-terminally GST-tagged human full length recombinant Mps-1 kinase; purchased Invitrogen, Karslruhe, Germany PV4071
T1 sequence (P33981 1-857): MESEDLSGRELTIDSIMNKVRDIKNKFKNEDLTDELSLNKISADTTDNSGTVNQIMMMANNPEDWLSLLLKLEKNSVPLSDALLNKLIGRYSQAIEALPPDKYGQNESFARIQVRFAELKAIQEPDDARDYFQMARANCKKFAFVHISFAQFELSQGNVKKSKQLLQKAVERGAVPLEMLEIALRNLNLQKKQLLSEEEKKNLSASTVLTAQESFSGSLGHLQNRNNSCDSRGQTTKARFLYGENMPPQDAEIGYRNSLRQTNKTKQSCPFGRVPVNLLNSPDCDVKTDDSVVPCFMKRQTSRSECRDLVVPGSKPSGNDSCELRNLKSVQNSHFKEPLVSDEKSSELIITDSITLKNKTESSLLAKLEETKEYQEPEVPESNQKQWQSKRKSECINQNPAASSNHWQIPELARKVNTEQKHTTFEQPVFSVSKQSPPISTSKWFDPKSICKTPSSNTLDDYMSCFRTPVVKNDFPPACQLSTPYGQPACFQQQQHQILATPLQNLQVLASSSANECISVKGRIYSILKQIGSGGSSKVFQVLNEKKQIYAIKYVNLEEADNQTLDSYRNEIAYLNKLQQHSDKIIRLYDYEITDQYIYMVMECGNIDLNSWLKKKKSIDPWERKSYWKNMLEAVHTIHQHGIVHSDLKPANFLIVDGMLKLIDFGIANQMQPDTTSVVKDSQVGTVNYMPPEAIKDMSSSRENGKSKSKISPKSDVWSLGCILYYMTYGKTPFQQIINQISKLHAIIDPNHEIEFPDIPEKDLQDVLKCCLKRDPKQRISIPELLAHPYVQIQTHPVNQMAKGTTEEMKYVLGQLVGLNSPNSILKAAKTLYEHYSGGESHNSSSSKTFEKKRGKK
Experiment: Mps-1 kinase assay (TR-FRET)
Assay type: biochemical
Conditions: Mps1 IC50 [nM], 10 μM ATP, 1 μM peptide substrate, 60 min at 22° C.
Procedure, shortened: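 Kinase activity of N-terminally GST-tagged full-length recombinant Mps-1, used at about 1 nM final and set within the linear range, was measured on a biotinylated peptide substrate. Phosphopeptide was detected by TR-FRET from Eu-anti-phospho(Ser/Thr) antibody to streptavidin-XLent after 1 h at 22° C.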

Question: With `Cc1cc(-c2cnc3c(NCCC(F)(F)F)cc(Nc4ccc(Cl)cc4F)nn23)ccc1C(=O)NC1CC1` [Example 376, 4-{6-[(4-chloro-2-fluorophenyl)amino]-8-[(3,3,3-trifluoropropyl)amino]imidazo[1,2-b]pyridazin-3-yl}-N-cyclopropyl-2-methylbenzamide] as the molecule, how does the IC50 read?
Answer: 0.2 nM

Question: Which IC50 does the source give for `Cc1ccc(F)cc1Oc1cc(NCCS(C)(=O)=O)c2ncc(-c3ccc(C(=O)NC4CC4)c(C)c3)n2n1` [Example 517, N-cyclopropyl-4-[6-(5-fluoro-2-methylphenoxy)-8-{[2-(methylsulfonyl)ethyl]amino}imidazo [1,2-b]pyridazin-3-yl]-2-methylbenzamide] here?
Answer: 0.2 nM

Question: Which IC50 does the source give for `CNC(=O)c1ccc(-c2cnc3c(NCC4CCOCC4)cc(Oc4ccc(OC)c(F)c4)nn23)cc1C` [Example 573, 4-{6-(3-fluoro-4-methoxyphenoxy)-8-[(tetrahydro-2H-pyran-4-ylmethyl)amino]imidazo[1,2-b]pyridazin-3-yl}-N,2-dimethylbenzamide] here?
Answer: < 1 nM

Question: `CNC(=O)c1ccc(-c2cnc3c(NCCN4CCOCC4)cc(Oc4ccc(F)c(F)c4)nn23)cc1C` [Example 562, 4-[6-(3,4-difluorophenoxy)-8-{[2-(morpholin-4-yl)ethyl]amino}imidazo[1,2-b]pyridazin-3-yl]-N,2-dimethylbenzamide] was tested. Which IC50 did it give?
Answer: 2.7 nM

Question: With `Cc1cc(F)cc(Oc2cc(NCC3CCSCC3)c3ncc(-c4ccc(C(=O)NC5CC5)c(C)c4)n3n2)c1` [Example 282, N-cyclopropyl-4-{6-(3-fluoro-5-methylphenoxy)-8-[(tetrahydro-2H-thiopyran-4-ylmethyl)amino]imidazo[1,2-b]pyridazin-3-yl}-2-methylbenzamide] as the molecule, how does the IC50 read?
Answer: 0.4 nM

Question: Which IC50 does the source give for `Cc1cc(-c2cnc3c(NCCO)cc(Sc4cccc(F)c4)nn23)ccc1C(=O)NC1CC1` [Example 276, N-cyclopropyl-4-{6-[(3-fluorophenyl)sulfanyl]-8-[(2-hydroxyethyl)amino]imidazo[1,2-b]pyridazin-3-yl}-2-methylbenzamide] here?
Answer: 0.1 nM

Question: With `Cc1ccc(O)cc1Nc1cc(NCCC(F)(F)F)c2ncc(-c3ccc(C(=O)NC4CC4)c(C)c3)n2n1` [Example 443, N-cyclopropyl-4-{6-[(5-hydroxy-2-methylphenyl)amino]-8-[(3,3,3-trifluoropropyl)amino]imidazo[1,2-b]pyridazin-3-yl}-2-methylbenzamide] as the molecule, how does the IC50 read?
Answer: 0.1 nM

Question: `COc1ccc(Nc2cc(NCC(C)(C)O)c3ncc(-c4ccc(C(=O)NC5CC5)c(C)c4)n3n2)cc1F` [Example 353, N-cyclopropyl-4-{6-[(3-fluoro-4-methoxyphenyl)amino]-8-[(2-hydroxy-2-methylpropyl)amino]imidazo[1,2-b]pyridazin-3-yl}-2-methylbenzamide] was tested. Which IC50 did it give?
Answer: 0.4 nM

Question: For `CC(C)CNc1cc(-c2ccccc2)nn2c(-c3ccc4c(N)n[nH]c4c3)cnc12` [Example 11, 3-(3-Amino-1H-indazol-6-yl)-N-isobutyl-6-phenylimidazo[1,2-b]pyridazin-8-amine], which IC50 is on record?
Answer: 2.4 nM

Question: How did the IC50 turn out when `CCN(CC)CCSc1cc(NCCC(F)(F)F)c2ncc(-c3ccc(C(=O)NC4CC4)c(C)c3)n2n1` [Example 210, N-cyclopropyl-4-(6-{[2-(diethylamino)ethyl]sulfanyl}-8-[(3,3,3-trifluoropropyl)amino]imidazo[1,2-b]pyridazin-3-yl)-2-methylbenzamide] was run?
Answer: 6.9 nM

Question: How did the IC50 turn out when `Cc1cc(-c2cnc3c(NCC(C)(C)O)cc(SCCN4CCOCC4)nn23)ccc1C(=O)NC1CC1` [Example 239, N-cyclopropyl-4-(8-[(2-hydroxy-2-methylpropyl)amino]-6-{[2-(morpholin-4-yl)ethyl]sulfanyl}imidazo[1,2-b]pyridazin-3-yl)-2-methylbenzamide] was run?
Answer: 25.5 nM

Question: How did the IC50 turn out when `Cc1cc(-c2cnc3c(NCCN4CCN(C)CC4)cc(Oc4cccc(F)c4)nn23)ccc1C(=O)NC1CC1` [Example 501, N-cyclopropyl-4-[6-(3-fluoro-phenoxy)-8-{[2-(4-methyl-piperazin-1-yl)ethyl]amino}imidazo[1,2-b]pyridazin-3-yl]-2-methylbenzamide] was run?
Answer: 0.1 nM

Question: How did the IC50 turn out when `Cc1cc(-c2cnc3c(NCCC(F)(F)F)cc(Nc4ccc(F)cc4)nn23)ccc1C(=O)NC1CC1` [Example 358, N-cyclopropyl-4-{6-[(4-fluorophenyl)amino]-8-[(3,3,3-trifluoropropyl)amino]imidazo[1,2-b]pyridazin-3-yl}-2-methylbenzamide] was run?
Answer: 0.1 nM

Question: For `Cc1cc(-c2cnc3c(NCC(C)(C)O)cc(-c4cncc(C#N)c4)nn23)ccc1C(=O)NC1CC1` [Example 234, 4-{6-(5-cyanopyridin-3-yl)-8-[(2-hydroxy-2-methylpropyl)amino]imidazo[1,2-b]pyridazin-3-yl}-N-cyclopropyl-2-methylbenzamide], which IC50 is on record?
Answer: 6.1 nM

Question: For `Cc1ccc(Oc2cc(NCCC(F)(F)F)c3ncc(-c4ccc(C(=O)NC5CC5)c(C)c4)n3n2)cc1` [Example 479, N-cyclopropyl-2-methyl-4-{6-(4-methylphenoxy)-8-[(3,3,3-trifluoro-propyl)amino]imidazo [1,2-b]pyridazin-3-yl} benzamide], which IC50 is on record?
Answer: 0.2 nM

Question: With `Cc1cc(-c2cnc3c(NCC(C)(C)O)cc(-c4ccc(F)cc4)nn23)ccc1C(=O)NC1CC1` [Example 7, N-cyclopropyl-4-{6-(4-fluorophenyl)-8-[(2-hydroxy-2-methylpropyl)amino]imidazo[1,2-b]pyridazin-3-yl}-2-methylbenzamide] as the molecule, how does the IC50 read?
Answer: 1.2 nM

Question: With `CNC(=O)c1ccc(-c2cnc3c(NCCC(F)(F)F)cc(Oc4cccc(F)c4)nn23)cc1C` [Example 551, 4-{6-(3-fluorophenoxy)-8-[(3,3,3-trifluoropropyl)amino]imidazo[1,2-b]pyridazin-3-yl}-N,2-dimethylbenzamide] as the molecule, how does the IC50 read?
Answer: 0.2 nM

Question: For `COc1ccccc1-c1cc(NCC(C)C)c2ncc(-c3ccc(C(=O)NC4CC4)cc3)n2n1` [Example 129, N-cyclopropyl-4-{6-(2-methoxyphenyl)-8-[(2-methylpropyl)amino]imidazo[1,2-b]pyridazin-3-yl}benamide], which IC50 is on record?
Answer: 3.3 nM

Question: How did the IC50 turn out when `O=C(NC1CC1)c1ccc(-c2cnc3c(NCc4cccs4)cc(Cl)nn23)cc1Cl` [Example 187, 2-Chloro-4-{6-chloro-8-[(thiophen-2-ylmethyl)amino]imidazo[1,2-b]pyridazin-3-yl}-N-cyclopropyl-benzamide] was run?
Answer: 49.8 nM

Question: `Cc1cc(-c2cnc3c(NCCN(C)C)cc(Oc4cccnc4)nn23)ccc1C(=O)NC1CC1` [Example 524, N-cyclopropyl-4-[8-{[2-(dimethylamino)ethyl]amino}-6-(pyridin-3-yloxy)imidazo [1,2-b]pyridazin-3-yl]-2-methylbenzamide] was tested. Which IC50 did it give?
Answer: 2.3 nM

Question: With `Cc1cc(-c2cnc3c(NCC(C)(C)O)cc(-c4ccoc4)nn23)ccc1C(=O)NC1CC1` [Example 157, N-cyclopropyl-4-{6-(furan-3-yl)-8-[(2-hydroxy-2-methylpropyl)amino]imidazo[1,2-b]pyridazin-3-yl}-2-methylbenzamide] as the molecule, how does the IC50 read?
Answer: 12 nM

Question: `C=Cc1cccc(Nc2cc(NCC(C)(C)O)c3ncc(-c4ccc(C(=O)NC5CC5)c(C)c4)n3n2)c1` [Example 409, N-cyclopropyl-4-{6-[(3-ethenylphenyl)amino]-8-[(2-hydroxy-2-methylpropyl)amino]imidazo[1,2-b]pyridazin-3-yl}-2-methylbenzamide] was tested. Which IC50 did it give?
Answer: 0.7 nM

Question: Which IC50 does the source give for `COC1(NC(=O)c2ccc(-c3cnc4c(NCCC(F)(F)F)cc(Oc5cccc(F)c5)nn34)cc2C)CC1` [Example 460, 4-{6-(3-fluorophenoxy)-8-[(3,3,3-trifluoropropyl)amino]imidazo[1,2-b]pyridazin-3-yl}-N-(1-methoxycyclopropyl)-2-methylbenzamide] here?
Answer: 0.3 nM

Question: For `c1cc(-c2cc(NC[C@H]3CCCO3)c3ncc(-c4ccc(-c5cnc(C6CC6)[nH]5)cc4)n3n2)ccn1` [Example 5, 3-[4-(2-Cyclopropyl-1H-imidazol-5-yl)phenyl]-6-(pyridin-4-yl)-N-[(2R)-tetrahydrofuran-2-ylmethyl]imidazo[1,2-b]pyridazin-8-amine], which IC50 is on record?
Answer: 13.3 nM

Question: How did the IC50 turn out when `Cc1cc(-c2cnc3c(NCC4CCSCC4)cc(Oc4cccc(F)c4F)nn23)ccc1C(=O)NC1CC1` [Example 293, N-cyclopropyl-4-{6-(2,3-difluorophenoxy)-8-[(tetrahydro-2H-thiopyran-4-ylmethyl)amino]imidazo[1,2-b]pyridazin-3-yl}-2-methylbenzamide] was run?
Answer: 0.4 nM

Question: Which IC50 does the source give for `COc1ccc(Oc2cc(NCCC(F)(F)F)c3ncc(-c4ccc(C(=O)NC5CC5)c(C)c4)n3n2)cc1` [Example 471, N-cyclopropyl-4-{6-(4-methoxyphenoxy)-8-[(3,3,3-trifluoropropyl)amino]imidazo[1,2-b]pyridazin-3-yl}-2-methylbenzamide] here?
Answer: 0.2 nM
